Reference: US20060264388A1, “Method for treating liver cancer by intrahepatic administration of nemorubicin” (priority 2003, published 2006)

Legend:
[1] = test system: patients with liver cancer; test: Liver toxicity (SGOT, SGPT, Total Bilirubin), worst CTC Grade by cycle, intrahepatic artery nemorubicin q8wk vs q6wk; type: in vivo, human
Experimental: (§1) The objective of the study was to shorten the time interval between treatment administrations from every 8 weeks (q8wk) of the protocol as reported in WO 00/15203 to every 6 weeks (q6wk). This was done in the attempt of improving the therapeutic potential of nemorubicin treatment through an increase of the dose intensity of the therapy, simultaneously safeguarding patient safety.
(§2) Overall, 13 patients were treated with the q8wk schedule (total 25 cycles administered; doses ranged from 200 to 800 mcg/m^2), and 11 patients were treated with the q6wk schedule (total 32 cycles administered; doses were 200 and 600 mcg/m^2).
The NCI-Common Tosicity Criteria grading system (CTC Grade), Version 2.0, was used to report toxicities.

[2] = test system: liver lesions of breast cancer patients with liver metastases; conditions: 1500 mcg/m^2 i.v., cited from earlier work
human liver tumor = test: Efficacy: tumor response, intrahepatic artery nemorubicin q8wk vs q6wk; type: in vivo
Experimental: as §1, §2

[3] = 200 mcg/m^2 q6wk, 12 evaluable cycles
[4] = 200 mcg/m^2 q8wk, 5 evaluable cycles
[5] = 400 mcg/m^2 q8wk, 4 evaluable cycles
[6] = 600 mcg/m^2 q6wk, 17 evaluable cycles
[7] = 600 mcg/m^2 q6wk, 18 evaluable cycles
[8] = 600 mcg/m^2 q8wk, 7 evaluable cycles
[9] = 800 mcg/m^2 q8wk, 5 evaluable cycles
[10] = 800 mcg/m^2 q8wk, 6 evaluable cycles

## COc1cccc2c1C(=O)c1c(O)c3c(c(O)c1C2=O)C[C@@](O)(C(=O)CO)C[C@@H]3O[C@H]1C[C@H](N2CCO[C@H](OC)C2)[C@H](O)[C@H](C)O1.Cl [nemorubicin, 3′desamino-3′[2(S)methoxy-4-morpholinyl]doxorubicin-hydrochloride]
[1]; [3]
  SGOT, worst CTC Grade by cycle (increased of at least one Grade versus baseline Grade): All Grades (%): 9 (75%) (%)
  SGOT, worst CTC Grade by cycle (increased of at least one Grade versus baseline Grade): Grade 1-2 (%): 8 (67%) (%)
  SGOT, worst CTC Grade by cycle (increased of at least one Grade versus baseline Grade): Grade 3-4 (%): 1 (8%) (%)
  SGPT, worst CTC Grade by cycle (increased of at least one Grade versus baseline Grade): All Grades (%): 7 (58%) (%)
  SGPT, worst CTC Grade by cycle (increased of at least one Grade versus baseline Grade): Grade 1-2 (%): 7 (58%) (%)
  Total Bilirubin, worst CTC Grade by cycle (increased of at least one Grade versus baseline Grade): All Grades (%): 10 (83%) (%)
  Total Bilirubin, worst CTC Grade by cycle (increased of at least one Grade versus baseline Grade): Grade 1-2 (%): 10 (83%) (%)
[1]; [4]
  SGOT, worst CTC Grade by cycle (increased of at least one Grade versus baseline Grade): All Grades (%): 3 (60%) (%)
  SGOT, worst CTC Grade by cycle (increased of at least one Grade versus baseline Grade): Grade 1-2 (%): 3 (60%) (%)
  SGPT, worst CTC Grade by cycle (increased of at least one Grade versus baseline Grade): All Grades (%): 4 (80%) (%)
  SGPT, worst CTC Grade by cycle (increased of at least one Grade versus baseline Grade): Grade 1-2 (%): 4 (80%) (%)
  Total Bilirubin, worst CTC Grade by cycle (increased of at least one Grade versus baseline Grade): All Grades (%): 5 (100%) (%)
  Total Bilirubin, worst CTC Grade by cycle (increased of at least one Grade versus baseline Grade): Grade 1-2 (%): 5 (100%) (%)
[1]; [5]
  SGOT, worst CTC Grade by cycle (increased of at least one Grade versus baseline Grade): All Grades (%): 4 (100%) (%)
  SGOT, worst CTC Grade by cycle (increased of at least one Grade versus baseline Grade): Grade 1-2 (%): 1 (25%) (%)
  SGOT, worst CTC Grade by cycle (increased of at least one Grade versus baseline Grade): Grade 3-4 (%): 3 (75%) (%)
  SGPT, worst CTC Grade by cycle (increased of at least one Grade versus baseline Grade): All Grades (%): 3 (75%) (%)
  SGPT, worst CTC Grade by cycle (increased of at least one Grade versus baseline Grade): Grade 1-2 (%): 2 (50%) (%)
  SGPT, worst CTC Grade by cycle (increased of at least one Grade versus baseline Grade): Grade 3-4 (%): 1 (25%) (%)
  Total Bilirubin, worst CTC Grade by cycle (increased of at least one Grade versus baseline Grade): All Grades (%): 2 (50%) (%)
  Total Bilirubin, worst CTC Grade by cycle (increased of at least one Grade versus baseline Grade): Grade 1-2 (%): 2 (50%) (%)
[1]; [6]
  SGOT, worst CTC Grade by cycle (increased of at least one Grade versus baseline Grade): All Grades (%): 16 (94%) (%)
  SGOT, worst CTC Grade by cycle (increased of at least one Grade versus baseline Grade): Grade 1-2 (%): 14 (82%) (%)
  SGOT, worst CTC Grade by cycle (increased of at least one Grade versus baseline Grade): Grade 3-4 (%): 2 (12%) (%)
[1]; [7]
  SGPT, worst CTC Grade by cycle (increased of at least one Grade versus baseline Grade): All Grades (%): 16 (89%) (%)
  SGPT, worst CTC Grade by cycle (increased of at least one Grade versus baseline Grade): Grade 1-2 (%): 14 (78%) (%)
  SGPT, worst CTC Grade by cycle (increased of at least one Grade versus baseline Grade): Grade 3-4 (%): 2 (11%) (%)
  Total Bilirubin, worst CTC Grade by cycle (increased of at least one Grade versus baseline Grade): All Grades (%): 14 (77%) (%)
  Total Bilirubin, worst CTC Grade by cycle (increased of at least one Grade versus baseline Grade): Grade 1-2 (%): 13 (72%) (%)
  Total Bilirubin, worst CTC Grade by cycle (increased of at least one Grade versus baseline Grade): Grade 3-4 (%): 1 (5%) (%)
[1]; [8]
  SGOT, worst CTC Grade by cycle (increased of at least one Grade versus baseline Grade): All Grades (%): 4 (57%) (%)
  SGOT, worst CTC Grade by cycle (increased of at least one Grade versus baseline Grade): Grade 1-2 (%): 2 (28%) (%)
  SGPT, worst CTC Grade by cycle (increased of at least one Grade versus baseline Grade): All Grades (%): 4 (57%) (%)
  SGPT, worst CTC Grade by cycle (increased of at least one Grade versus baseline Grade): Grade 1-2 (%): 1 (14%) (%)
  Total Bilirubin, worst CTC Grade by cycle (increased of at least one Grade versus baseline Grade): All Grades (%): 7 (100%) (%)
  Total Bilirubin, worst CTC Grade by cycle (increased of at least one Grade versus baseline Grade): Grade 1-2 (%): 7 (100%) (%)
[1]; [9]
  SGOT, worst CTC Grade by cycle (increased of at least one Grade versus baseline Grade): All Grades (%): 4 (80%) (%)
  SGOT, worst CTC Grade by cycle (increased of at least one Grade versus baseline Grade): Grade 1-2 (%): 1 (20%) (%)
  SGOT, worst CTC Grade by cycle (increased of at least one Grade versus baseline Grade): Grade 3-4 (%): 3 (60%) (%)
  Total Bilirubin, worst CTC Grade by cycle (increased of at least one Grade versus baseline Grade): All Grades (%): 4 (80%) (%)
  Total Bilirubin, worst CTC Grade by cycle (increased of at least one Grade versus baseline Grade): Grade 1-2 (%): 3 (60%) (%)
  Total Bilirubin, worst CTC Grade by cycle (increased of at least one Grade versus baseline Grade): Grade 3-4 (%): 1 (20%) (%)
[1]; [10]
  SGPT, worst CTC Grade by cycle (increased of at least one Grade versus baseline Grade): All Grades (%): 5 (83%) (%)
  SGPT, worst CTC Grade by cycle (increased of at least one Grade versus baseline Grade): Grade 3-4 (%): 5 (83%) (%)
[1]; q6wk versus q8wk schedule
  frequency of transaminitis, grade 3-4 events: lower in the q6wk than in the q8wk schedule
[2]; 6 patients
  complete response (CR) in liver lesions: 1
  partial responses (PRs) in liver lesions (2 confirmed and 1 unconfirmed): 3
[2]
  patients with response in liver lesions: 4 out of 6
Human liver tumor; 200 mcg/m^2 q6wk, one patient AJCC stage II (confirmed PR), CT scan 5 weeks after going off study
  lesion area reduction versus baseline: 70%
Human liver tumor; 200 mcg/m^2 q6wk, one patient AJCC stage II (confirmed PR), after 2 cycles
  tumor shrinkage versus baseline: 64%
Human liver tumor; 200 mcg/m^2 q8wk, one patient AJCC stage II (unconfirmed PR)
  duration of PR in the original lesion (right lobe): ≥ 12 months
Human liver tumor; 200 mcg/m^2 q8wk, one patient AJCC stage II (unconfirmed PR), after 2 cycles
  decrease in tumor area versus baseline: 85.9%
Human liver tumor; 200 mcg/m^2 q8wk, one patient AJCC stage III (confirmed PR), after 1 cycle
  shrinkage of measurable lesion versus baseline: 78.45%
